Experimental data from US20240159706A1, “MALDI-MS METHOD, PHOTO-SENSITIVE MALDI MATRIX COMPOSITE AND PHOTO-CAGED MALDI MATRIX COMPOUND FOR USE IN SAID METHOD AND RESPECTIVE USES” (SIRIUS FINE CHEMICALS SICHEM GMBH, priority 2021, published 2024).
Where two headings read alike, the source gives them in different places.

Columns and labels:
[1] = Solubility tests with Photo-caged MALDI Matrix Compounds in solvents/solvent systems; type: physicochemical; conditions: for solubility: thermodynamic from solid, read-out: solubility (completely dissolved at 2.5 mg/mL); for solubility in the solvents or solvent systems under review: overall rating from Table 2, Solvents 1-10
Description: Photo-caged MALDI Matrix Compounds according to the invention were prepared as described in Example 1 above and tested for solubility in different solvents (including solvent systems). The solvents (including solvent systems) used in this Example 2 are listed here below in Table 1:
Around 1 mg of each Photo-caged MALDI Matrix Compound was weighed into an Eppendorf tube using an analytical balance. The calculated amount of selected solvent was added into the tube to generate a solution at a maximal concentration of 2.5 mg/mL. An ultrasonic bath was used for max. 3 min. to accelerate the dissolving process.
The numbers of the compounds used in this Example 2 refer to the example numbers of Example 1 above. In Table 2 below, the mark “X” in a cell means, that the respective compound was completely dissolved in the respective solvent or solvent system in a concentration of 2.5 mg/mL.

[2] = Additional vacuum stability test, compounds sprayed on ITO slides with porcine brain tissue sections (Example 4a); type: physicochemical; conditions: 21 hrs, about 35° C., vacuum up to about 1.4×10^−7 mbar
Description: In a separate experiment, frozen porcine brain tissue was sectioned into 10 μm slices using a Leica CM1950 clinical cryostate (Leica Biosystems, Germany) at a chamber temperature of −15° C. and a head temperature of −10° C. The tissue sections were thaw-mounted onto ITO glass slides and dried for 20 min under vacuum. The ITO glass object slides with tissue sections were then sealed and stored at −80° C. until analysis. Shortly before usage, the slides were taken out from the freezer and thawed at room temperature for 20 min. under vacuum.
Photo-caged MALDI Matrix Compounds of Examples Ex. 1.1 (DMNB-2,5-DHAP), 1.7 (CNB-2,5-DHAP), 1.8 (PMNB-2,5-DHAP) and 1.9 (DMNBC-2,5 DHAP) were dissolved (Ex. 1.1: 2.5 mg/mL in standard solvent according to table 2 above; Ex.: 1.7 and 1.8:2.5 mg/mL in acetonitrile/water 7:3 (v/v)+0.1% trifluoroacetic acid; Ex. 1.9: saturated solution <2.5 mg/mL in acetonitrile/water 8:2 (v/v)+0.1% trifluoroacetic acid) and sprayed onto the ITO slides as prepared above, including to the porcine brain tissue sections thereof (see above) with a HTX M5 sprayer (HTX Technologies, USA), spray parameters: temperature of spray nozzle/tray: 50° C./25° C., Spray nozzle velocity 1000 mm/min; nozzle height: 40 mm. Twenty passes with a flow rate of 60 μL/min and a pressure of 10 psi were sprayed. Optical images of the sprayed slides were then recorded before incubation and after incubation in an ultrafleXtreme™ MALDI TOF mass spectrometer (see above) for 21 hrs at about 35° C. and a vacuum of up to about 1.4×10^−7 mbar.

[3] = Crystallisation test by spray method; type: physicochemical; conditions: on ITO object slide, by scanning electron microscopy
Description: The Photo-caged MALDI Matrix Compound of Ex. 1.1 according to the invention was prepared as described in Example 1 above and spray-tested for its crystallization properties in a spraying method on (i) an indium tin-oxide (ITO) object slide and (ii) on a sliced sample of porcine brain.
In each case, a solution of the Photo-caged MALDI Matrix Compound of Ex. 1.1 (concentration 2.5 mg/mL in acetonitrile/water v/v 4/1) was sprayed onto the surfaces of (i) an ITO object slide and (ii) on a sliced sample of porcine brain with a MALDI HTX M5 Sprayer™ (by HTX Technologies, LLC, USA).
The operating parameters applied were as follows: Temperature of spraying nozzle: 50° C./flow rate: 0.06 mL/min/speed of spraying nozzle: 1000 mm/min/spraying distance: 40 mm.
The resulting crystals on (i) an ITO object slide and (FIG. 1 to 3) (ii) on a sliced sample of porcine brain (FIG. 4 to 5) where then analyzed by optical scanning (in 20-fold magnification) and by scanning electron microscopy (in 5000-fold and 10000-fold magnification), as shown in FIG. 1 to 5.

[4] = stated as known; cited from earlier work
[5] = Dissolution of matrix compounds when preparing test solutions (Example 4a); type: physicochemical
Description: Conventional MALDI matrix compounds 2,5-dihydroxybenzoic acid (2,5-DHB); 1,5-diaminonaphthalene (1,5-DAN); 3-hydroxycoumarin (3-HC); […] (2,5-DHAP); 2-mercaptobenzothiazole (2-MBT) and dithranol, respectively, were dissolved in acetonitrile/water (1:1 v/v) at a concentration of 5 mg/mL. […] 1 μL of each resulting solution was pipetted onto an ITO glass slide. After droplets had dried in the air, a first optical image (Aperio CS2 Scanner, Leica Biosystems, Wetzlar, Germany) of the whole ITO slides at 0 min. was recorded. The slides were then incubated at about 35° C. and a vacuum between about 3.5×10^−6 mbar (t=0 min.) and about 1.4×10^−7 mbar (t=892 min.) in an ultrafleXtreme™ MALDI TOF mass spectrometer (Bruker Daltonics) equipped with a Smartbeam-II Nd:YAG laser (355 nm) for time periods of 18 min., 80 min. and 892 min., respectively. After each time interval, additional optical images were taken of the slides. For 2,5-dihydroxyacetophenone (2,5-DHAP) a similar test was performed with a diluted solution (2.5 mg/mL). […]

[6] = Solvent 6: Methanol/water (v/v 90/10) + 0.1% trifluoroacetic acid
[7] = Solvent 7: Methanol/water (v/v 90/10) + 50 mM (final conc.) NH4HCO3
[8] = Solvent 8: Methanol/water (v/v 85/15)
[9] = Solvent 9: Methanol/water (v/v 85/15) + 0.1% trifluoroacetic acid
[10] = Solvent 10: Methanol/water (v/v 85/15) + 50 mM (final conc.) NH4HCO3
[11] = organic solvent or mixture, Solvent 1: Acetonitrile
[12] = organic solvent or mixture, Solvent 2: Acetonitrile/water (v/v 90/10)
[13] = organic solvent or mixture, Solvent 3: Acetonitrile/water (v/v 90/10) + 0.1% trifluoroacetic acid
[14] = organic solvent or mixture, Solvent 4: Acetonitrile/water (v/v 85/15) + 0.1% trifluoroacetic acid
[15] = organic solvent or mixture, Solvent 5: Methanol/water (v/v 90/10)
[16] = Solvent 5: Methanol/water (v/v 90/10)
[17] = organic solvent or mixture, Solvent 6: Methanol/water (v/v 90/10) + 0.1% trifluoroacetic acid
[18] = Solvent 2: Acetonitrile/water (v/v 90/10)
[19] = Solvent 3: Acetonitrile/water (v/v 90/10) + 0.1% trifluoroacetic acid
[20] = Solvent 4: Acetonitrile/water (v/v 85/15) + 0.1% trifluoroacetic acid

Row | solubility (completely dissolved at 2.5 mg/mL) [1, 6] | solubility (completely dissolved at 2.5 mg/mL) [1, 7] | solubility (completely dissolved at 2.5 mg/mL) [1, 8] | solubility (completely dissolved at 2.5 mg/mL) [1, 9] | solubility (completely dissolved at 2.5 mg/mL) [1, 10] | solubility [1, 11] [µg/mL] | solubility [1, 12] [µg/mL] | solubility [1, 13] [µg/mL] | solubility [1, 14] [µg/mL] | solubility in the solvents or solvent systems under review [1] | presence on ITO slides / porcine brain tissue sections after incubation under vacuum [2] | solubility (completely dissolved at 2.5 mg/mL) [1, 16] | Structure (SMILES) | further results
1 | ◯ | ◯ | ◯ | ◯ | ◯ | > 2500 | > 2500 | > 2500 | > 2500 | very good solubility | – | – | COc1cc(CSc2nc3ccccc3s2)c([N+](=O)[O-])cc1OC [Ex. 1.5, 2-((4,5-Dimethoxy-2-nitrobenzyl)thio)benzo[d]thiazole] | solubility [1, 15]: > 2500 µg/mL
2 | – | ◯ | ◯ | ◯ | ◯ | > 2500 | > 2500 | > 2500 | > 2500 | very good solubility | best results | ◯ | COc1cc(COc2ccc(O)c(C(C)=O)c2)c([N+](=O)[O-])cc1OC [Ex. 1.1, 1-(5-((4,5-Dimethoxy-2-nitrobenzyl)oxy)-2-hydroxyphenyl)ethan-1-one] | solubility [1, 17]: > 2500 µg/mL; average size of the resulting crystals [3]: about 1 μm
3 | ◯ | ◯ | ◯ | ◯ | ◯ | > 2500 | > 2500 | > 2500 | > 2500 | very good solubility | – | ◯ | COc1cc(COc2cccc(O)c2C(C)=O)c([N+](=O)[O-])cc1OC [Ex. 1.4, 1-(2-((4,5-Dimethoxy-2-nitrobenzyl)oxy)-6-hydroxyphenyl)ethan-1-one] | –
4 | ◯ | ◯ | ◯ | ◯ | ◯ | > 2500 | – | – | – | – | – | ◯ | COc1cc(COc2cc3ccccc3oc2=O)c([N+](=O)[O-])cc1OC [Ex. 1.3, 3-((4,5-Dimethoxy-2-nitrobenzyl)oxy)-2H-chromen-2-one] | solubility (completely dissolved at 2.5 mg/mL) [1, 18]: ◯; solubility (completely dissolved at 2.5 mg/mL) [1, 19]: ◯; solubility (completely dissolved at 2.5 mg/mL) [1, 20]: ◯
5 | – | – | – | – | – | > 2500 | > 2500 | > 2500 | > 2500 | excellent solubility | – | – | COc1cc(CNc2cccc3c(N)cccc23)c([N+](=O)[O-])cc1OC [Ex. 1.2, N^1-(4,5-dimethoxy-2-nitrobenzyl)naphthalene-1,5-diamine] | solubility ([1]; methanol/water (v/v 85/15) + 50 mM NH4HCO3, organic solvent or mixture, Solvent 10: Methanol/water (v/v 85/15) + 50 mM (final conc.) NH4HCO3): > 2500 µg/mL; solubility ([1]; methanol/water (v/v 90/10) + 50 mM NH4HCO3, organic solvent or mixture, Solvent 7: Methanol/water (v/v 90/10) + 50 mM (final conc.) NH4HCO3): > 2500 µg/mL; solubility [1, 15]: > 2500 µg/mL; solubility [1, 17]: > 2500 µg/mL; solubility ([1]; organic solvent or mixture, Solvent 8: Methanol/water (v/v 85/15)): > 2500 µg/mL; solubility ([1]; organic solvent or mixture, Solvent 9: Methanol/water (v/v 85/15) + 0.1% trifluoroacetic acid): > 2500 µg/mL
6 | – | – | – | – | – | – | – | – | – | – | best results | – | COc1cc(COC(=O)Oc2ccc(O)c(C(C)=O)c2)c([N+](=O)[O-])cc1OC [Ex. 1.9, 3-Acetyl-4-hydroxyphenyl (4,5-dimethoxy-2-nitrobenzyl) carbonate] | concentration of saturated solution ([5]; acetonitrile/water 8:2 (v/v)+0.1% trifluoroacetic acid): < 2500 µg/mL
7 | ◯ | ◯ | ◯ | ◯ | ◯ | – | – | – | – | – | – | ◯ | COc1cc(COc2cccc3c2C(=O)c2c(O)cccc2C3)c([N+](=O)[O-])cc1OC [Ex. 1.6, 1-((4,5-Dimethoxy-2-nitrobenzyl)oxy)-8-hydroxyanthracen-9(10H)-one] | solubility (completely dissolved at 2.5 mg/mL) ([1]; Solvent 1: Acetonitrile): ◯; solubility (completely dissolved at 2.5 mg/mL) [1, 18]: ◯; solubility (completely dissolved at 2.5 mg/mL) [1, 19]: ◯; solubility (completely dissolved at 2.5 mg/mL) [1, 20]: ◯

More lines, now with the values behind:

Row | Structure (SMILES) | solubility (completely dissolved at 2.5 mg/mL) [1, 6] | solubility (completely dissolved at 2.5 mg/mL) [1, 7] | solubility (completely dissolved at 2.5 mg/mL) [1, 8] | solubility (completely dissolved at 2.5 mg/mL) [1, 9] | solubility (completely dissolved at 2.5 mg/mL) [1, 10] | solubility [1, 11] [µg/mL] | solubility [1, 12] [µg/mL] | solubility [1, 13] [µg/mL] | solubility [1, 14] [µg/mL] | solubility in the solvents or solvent systems under review [1] | presence on ITO slides / porcine brain tissue sections after incubation under vacuum [2] | solubility (completely dissolved at 2.5 mg/mL) [1, 16] | further results
8 | CC(=O)c1cc(O)ccc1O [2,5-DHAP, 2,5-dihydroxyacetophenone, reference compound] | – | – | – | – | – | – | – | – | – | – | completely evaporated | – | –
9 | CC(=O)c1c(O)cccc1O [2,6-DHAP, 2,6-dihydroxyacetophenone] | – | – | – | – | – | – | – | – | – | – | – | – | sensitivity to vacuum conditions [4]: extremely sensitive to vacuum conditions and volatile
10 | Sc1nc2ccccc2s1 [2-MBT, 2-mercaptobenzothiazole, reference compound] | – | – | – | – | – | – | – | – | – | – | – | – | dissolution at a concentration of 5 mg/mL ([5]; acetonitrile/water (1:1 v/v), 5 mg/mL): not completely dissolved
